Measurements taken from PubChem BioAssay AID2060495 (Molecular Pharmacology Branch, DTP, NCI, 2025).
Where “and” joins values, the source holds several entries; their conditions need not be identical. Equal entries are not always repeated.

System: 521955-158-R2-J5-PDC complex spheroid viability
Assay: Anticancer human tumor 521955-158-R2-J5-PDC patient-derived pancreatic carcinoma cell line growth inhibition [GQUAD]
Details: for viability, T/C: stronger effect = lower value
Outline: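 Tumor cells were grown as complex spheroids with HUVEC endothelial cells and mesenchymal stem cells as stroma. G-quadruplex stabilizers were combined with targeted agents over half-log dilutions from near the clinical Cmax, or from 10 microM.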

[1] = curve of first compound, second compound 0.0316 µM
[2] = curve of first compound, second compound 0.1 µM
[3] = curve of first compound, second compound 0.316 µM
[4] = curve of first compound, second compound 1 µM
[5] = curve of first compound, second compound 3.16 µM
[6] = curve of first compound, second compound 10 µM
[7] = second compound 0.0316 µM, first compound 0.0316 µM
[8] = second compound 0.0316 µM, first compound 0.1 µM
[9] = second compound 0.0316 µM, first compound 0.316 µM
[10] = second compound 0.0316 µM, first compound 1 µM
[11] = second compound 0.0316 µM, first compound 3.16 µM
[12] = second compound 0.0316 µM, first compound 10 µM
[13] = second compound 0.1 µM, first compound 0.0316 µM
[14] = second compound 0.1 µM, first compound 0.1 µM
[15] = second compound 0.1 µM, first compound 0.316 µM
[16] = second compound 0.1 µM, first compound 1 µM
[17] = second compound 0.1 µM, first compound 3.16 µM
[18] = second compound 0.1 µM, first compound 10 µM
[19] = second compound 0.316 µM, first compound 0.0316 µM
[20] = second compound 0.316 µM, first compound 0.1 µM
[21] = second compound 0.316 µM, first compound 0.316 µM
[22] = second compound 0.316 µM, first compound 1 µM
[23] = second compound 0.316 µM, first compound 3.16 µM
[24] = second compound 0.316 µM, first compound 10 µM
[25] = second compound 1 µM, first compound 0.0316 µM
[26] = second compound 1 µM, first compound 0.1 µM
[27] = second compound 1 µM, first compound 0.316 µM
[28] = second compound 1 µM, first compound 1 µM
[29] = second compound 1 µM, first compound 3.16 µM
[30] = second compound 1 µM, first compound 10 µM
[31] = second compound 3.16 µM, first compound 0.0316 µM
[32] = second compound 3.16 µM, first compound 0.1 µM
[33] = second compound 3.16 µM, first compound 0.316 µM
[34] = second compound 3.16 µM, first compound 1 µM
[35] = second compound 3.16 µM, first compound 3.16 µM
[36] = second compound 3.16 µM, first compound 10 µM
[37] = second compound 10 µM, first compound 0.0316 µM
[38] = second compound 10 µM, first compound 0.1 µM
[39] = second compound 10 µM, first compound 0.316 µM
[40] = second compound 10 µM, first compound 1 µM
[41] = second compound 10 µM, first compound 3.16 µM
[42] = second compound 10 µM, first compound 10 µM
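Further: spheroids exposed to agents for one week before reading.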
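Wherever viability, T/C is given: 100% = DMSO vehicle control viability.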

COc1ccc([C@@H](O)c2cc(-c3ncnc4cc(N5CCOCC5)ccc34)c(F)cc2Cl)nn1 + Cc1cnc(CNC(=O)c2c(=O)c3ccc(N4CCCN(C)CC4)nc3n3c2sc2ccccc23)cn1
IC50 [1]: 0.292 µM
IC50 [2]: 0.225 µM
IC50 [3]: < 0.0316 µM
IC50 [4]: < 0.0316 µM
IC50 [5]: < 0.0316 µM
IC50 [6]: < 0.0316 µM
viability, T/C [7]: 79.2%
viability, T/C [8]: 62.5%
viability, T/C [9]: 53.6%
viability, T/C [10]: 30.4%
viability, T/C [11]: 24.8%
viability, T/C [12]: 25.6%
viability, T/C [13]: 65.2%
viability, T/C [14]: 56.8%
viability, T/C [15]: 49.1%
viability, T/C [16]: 31.7%
viability, T/C [17]: 30.7%
viability, T/C [18]: 20.9%
viability, T/C [19]: 37.4%
viability, T/C [20]: 35.3%
viability, T/C [21]: 37%
viability, T/C [22]: 24.5%
viability, T/C [23]: 24.9%
viability, T/C [24]: 18.3%
viability, T/C [25]: 21.7%
viability, T/C [26]: 20.7%
viability, T/C [27]: 18.4%
viability, T/C [28]: 18.2%
viability, T/C [29]: 18.8%
viability, T/C [30]: 18.1%
viability, T/C [31]: 19.5%
viability, T/C [32]: 20.4%
viability, T/C [33]: 18.3%
viability, T/C [34]: 16.9%
viability, T/C [35]: 15.2%
viability, T/C [36]: 12%
viability, T/C [37]: 18.8%
viability, T/C [38]: 18.6%
viability, T/C [39]: 18.3%
viability, T/C [40]: 16.8%
viability, T/C [41]: 14.5%
viability, T/C [42]: 11.6%

CC(C)(O)C1CCC(Nc2ccc3ncc(-c4cccc(C(F)(F)F)c4)n3n2)CC1 (stereo unspecified)
viability, T/C (compound 0.0316 µM): 120% and 105% and 102%
viability, T/C (compound 0.1 µM): 109% and 101% and 81.3%
viability, T/C (compound 0.316 µM): 107% and 114% and 115%
viability, T/C (compound 1 µM): 110% and 112% and 125%
viability, T/C (compound 3.16 µM): 15.4% and 16.3% and 6.66%
viability, T/C (compound 10 µM): 18.2% and 18% and 8.13%
IC50 (curve of compound): 2.1 µM and 2.09 µM and 1.92 µM

C=CC(=O)N1CCN(c2nc(=O)n(-c3c(C)ccnc3C(C)C)c3nc(-c4c(O)cccc4F)c(F)cc23)C(C)C1 (stereo unspecified) + Cc1[nH]c2ccc(F)cc2c1-c1nc2c3cccnc3c3ncccc3c2[nH]1
IC50 [1]: > 10 µM
IC50 [2]: > 10 µM
IC50 [3]: > 10 µM
IC50 [4]: > 10 µM
IC50 [5]: > 10 µM
IC50 [6]: > 10 µM
viability, T/C [7]: 90.3%
viability, T/C [8]: 101%
viability, T/C [9]: 97.7%
viability, T/C [10]: 94.3%
viability, T/C [11]: 124%
viability, T/C [12]: 67.2%
viability, T/C [13]: 93%
viability, T/C [14]: 106%
viability, T/C [15]: 117%
viability, T/C [16]: 102%
viability, T/C [17]: 102%
viability, T/C [18]: 74.8%
viability, T/C [19]: 80.9%
viability, T/C [20]: 96.9%
viability, T/C [21]: 106%
viability, T/C [22]: 104%
viability, T/C [23]: 100%
viability, T/C [24]: 77.9%
viability, T/C [25]: 92.9%
viability, T/C [26]: 102%
viability, T/C [27]: 107%
viability, T/C [28]: 110%
viability, T/C [29]: 128%
viability, T/C [30]: 93.2%
viability, T/C [31]: 93.9%
viability, T/C [32]: 105%
viability, T/C [33]: 98%
viability, T/C [34]: 118%
viability, T/C [35]: 121%
viability, T/C [36]: 79.4%
viability, T/C [37]: 98.2%
viability, T/C [38]: 98.3%
viability, T/C [39]: 118%
viability, T/C [40]: 129%
viability, T/C [41]: 129%
viability, T/C [42]: 101%
